What was measured:
[1] = biological target: T1, cytoplasmic domain of the human CSF-1R (Homo sapiens, UniProt P07333); experiment: In vitro kinase assay for CSF-1R (AlphaScreen); type: biochemical; conditions: tested at about 1 μM
T1 construct: Recombinant protein corresponding to the cytoplasmic domain of the human CSF-1R; purchased Invitrogen Corporation, Carlsbad, Calif; U.S.A. PV3249
T1 sequence (P07333 539-972 limits assumed): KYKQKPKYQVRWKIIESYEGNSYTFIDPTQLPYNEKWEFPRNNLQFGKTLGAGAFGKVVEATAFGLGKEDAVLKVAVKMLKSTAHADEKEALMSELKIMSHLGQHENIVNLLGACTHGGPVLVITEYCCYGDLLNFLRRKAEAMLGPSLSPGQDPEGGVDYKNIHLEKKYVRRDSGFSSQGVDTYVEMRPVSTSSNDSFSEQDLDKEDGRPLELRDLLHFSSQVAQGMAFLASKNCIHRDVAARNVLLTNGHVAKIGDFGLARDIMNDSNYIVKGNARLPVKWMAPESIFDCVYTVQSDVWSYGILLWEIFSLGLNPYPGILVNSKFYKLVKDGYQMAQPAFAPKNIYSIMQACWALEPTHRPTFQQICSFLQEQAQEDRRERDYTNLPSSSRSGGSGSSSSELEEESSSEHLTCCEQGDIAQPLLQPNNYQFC
Description: The kinase activity of various protein tyrosine kinases can be measured by providing ATP and a suitable peptide or protein tyrosine-containing substrate, and assaying the transfer of phosphate moiety to the tyrosine residue. Recombinant protein corresponding to the cytoplasmic domain of the human CSF-1R was purchased from Invitrogen Corporation, Carlsbad, Calif. U.S.A. (#PV3249). For each assay, test compounds were serially diluted, starting at 25 μM with 3 fold dilutions, in DMSO in 384 well plates then mixed with an appropriate kinase reaction buffer consisting of 50 mM Hepes, 5 mM MgCl2, 10 mM MnCl2, 0.1% BSA, pH 7.5, 1.0 mM dithiothreitol, 0.01% Tween 80 plus […]. Kinase protein and an appropriate biotinylated peptide substrate at 50 nM were added to give a final volume of 20 μL, reactions were incubated for 2 hours at room temperature and stopped by the addition of 10 μL of 45 mM EDTA, 50 mM Hepes pH 7.5. Added to the stopped reaction mix was 30 μL of PT66 Alphascreen beads (Perkin Elmer, Boston, Mass., U.S.A.). The reaction was incubated overnight and read on the Envision (Perkin Elmer). Phosphorylated peptide product was measured with the AlphaScreen system (Perkin Elmer) using acceptor beads coated with anti-phosphotyrosine antibody PT66 and donor beads coated with streptavidin that emit a fluorescent signal at the 520-620 nm emission wave length if in close proximity. The concentration of each compound for 50% inhibition (IC50) was calculated by non-linear regression using XL Fit data analysis software.
CSF-1R kinase was assayed in 50 mM Hepes pH 7.0, 5 mM MgCl2, 10 mM MnCl2, 1 mM DTT, 1 mg/mL BSA, 1.0 μM ATP, and 0.05 μM biotin-GGGGRPRAATF-NH2 (SEQ ID NO:2) peptide substrate. CSF-1R kinase was added at final concentration of 4 nM.

PDGFRb = biological target: T2, PDGFRb (Homo sapiens, UniProt P09619); experiment: Inhibition of PDGFRb kinase in an in vitro biochemical assay (alphascreen); conditions: tested at about 1 μM; read-out: PDGFR % inhibition at 1 μM
T2 construct: The kinase domain of PDGFRβ was assayed in 50 mM Hepes; purchased Invitrogen P3082
Description: (§1) The IC50 values for the inhibition of RTKs were determined in the alphascreen format measuring the inhibition by compound of phosphate transfer to a substrate by the respective enzyme. Briefly, the respective RTK domain purchased as human recombinant protein (cKIT Upstate #14-559, PDGFRb Invitrogen #P3082) were incubated with serial dilutions of compound in the presence of substrate and ATP concentrations within 3 times the Km of the enzyme.
(§2) The kinase domain of cKIT was assayed in 50 mM Hepes, pH=7.5, 5 mM MgCl2, 10 mM MnCl2, 1 mM DTT, 0.1% BSA with 0.06 uM biotinylated peptide substrate (GGLFDDPSYVNVQNL-NH2) and 15 μM ATP (ATP KM apparent =15 μM). The kinase domain of PDGFRβ was assayed in 50 mM Hepes, pH=7.5, 20 mM MgCl2, 1 mM DTT, 0.1% BSA with 0.1 μM biotinylated peptide substrate (GGLFDDPSYVNVQNL-NH2) and 10 μM ATP (ATP KM apparent=25 μM). Reactions were incubated at room temperature for 3 to 4 hr and stopped with buffer (20 mM EDTA, 0.01% Tween-20 for both PDGFRβ and cKIT). Alphascreen PY20 beads were added to the stopped cKIT reactions and PY20 Ab/Protein A Alphascreen beads were added to the PDGFRβ stopped reactions. Both reactions were incubated overnight and read on the Alphascreen reader. The concentration of compound for 50% inhibition (IC50) was calculated employing non-linear regression using XL-Fit data analysis software. As a control compound, staurosporine is run in every assay and a Z′>0.5 is required to validate results.

cKIT = biological target: T3, cKIT (Homo sapiens, UniProt P10721); experiment: Inhibition of cKIT kinase in an in vitro biochemical assay (alphascreen); conditions: tested at about 1 μM
T3 construct: The kinase domain of cKIT was assayed in 50 mM Hepes; purchased Upstate 14-559
Description: as §1, §2

T2 sequence (P09619 600-962 limits assumed): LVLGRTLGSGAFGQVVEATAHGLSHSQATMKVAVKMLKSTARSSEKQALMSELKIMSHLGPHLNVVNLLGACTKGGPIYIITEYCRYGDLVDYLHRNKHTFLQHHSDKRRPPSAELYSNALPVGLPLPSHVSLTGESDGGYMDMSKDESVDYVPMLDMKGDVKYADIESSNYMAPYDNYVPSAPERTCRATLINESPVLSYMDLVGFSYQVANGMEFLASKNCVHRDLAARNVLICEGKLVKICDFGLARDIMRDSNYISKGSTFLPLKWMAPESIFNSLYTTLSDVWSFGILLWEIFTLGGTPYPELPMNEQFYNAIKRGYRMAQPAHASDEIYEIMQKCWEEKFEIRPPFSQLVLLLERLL
T3 sequence (P10721 589-937 limits assumed): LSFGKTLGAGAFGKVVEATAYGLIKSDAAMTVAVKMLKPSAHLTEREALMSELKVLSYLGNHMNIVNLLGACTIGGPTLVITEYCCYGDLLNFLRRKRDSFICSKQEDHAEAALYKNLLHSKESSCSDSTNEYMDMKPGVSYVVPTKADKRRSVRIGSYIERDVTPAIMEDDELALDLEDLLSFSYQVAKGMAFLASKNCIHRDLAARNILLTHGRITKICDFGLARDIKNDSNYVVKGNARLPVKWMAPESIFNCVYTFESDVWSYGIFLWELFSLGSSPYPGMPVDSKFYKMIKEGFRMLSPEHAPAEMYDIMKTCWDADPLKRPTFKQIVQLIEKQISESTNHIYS

| inhibition at 1 µM [1] [%] | inhibition at 1 µM (PDGFRb) [%] | inhibition at 1 µM (cKIT) [%] | Structure (SMILES) |
| --- | --- | --- | --- |
| 83 | 9 | < 1 | CNC(=O)c1cc(Oc2ccc3nc(NCC4CC4)ncc3c2)ccn1 [Example 53, 4-(2-(cyclopropylmethylamino)quinazolin-6-yloxy)-N-methylpicolinamide] |
| 99 | 6 | 42 | CNC(=O)c1cc(Oc2ccc3nc(OCC4CCCCC4)ncc3c2)ccn1 [Example 55, 4-(2-(cyclohexylmethoxy)quinazolin-6-yloxy)-N-methylpicolinamide] |
| 90 | 11 | < 1 | CNC(=O)c1cc(Oc2ccc3nc(Nc4ccccc4OCCCO)ncc3c2)ccn1 [Example 71, 4-(2-(2-(3-hydroxypropoxy)phenylamino)quinazolin-6-yloxy)-N-methylpicolinamide] |
| 99 | 30 | 30 | CNC(=O)c1cc(Oc2ccc3nc(N[C@@H]4CCCC[C@H]4O)[nH]c3c2)ccn1 [Example 82, 4-(2-((1R,2R)-2-hydroxycyclohexylamino)-1H-benzo[d]imidazol-6-yloxy)-N-methylpicolinamide] |
| 62 | 19 | 8 | CNC(=O)c1cc(Oc2ccc3nc(N[C@@H]4CCCC[C@H]4N)ncc3c2)ccn1 [Example 73, 4-(2-((1R,2R)-2-aminocyclohexylamino)quinazolin-6-yloxy)-N-methylpicolinamide] |
| 99 | 52 | 10 | CNC(=O)c1cc(Oc2ccc3nc(NCC4CCCCC4)ncc3c2)ccn1 [Example 39, 4-(2-(cyclohexylmethylamino)quinazolin-6-yloxy)-N-methylpicolinamide] |
| 88 | 24 | 28 | CNC(=O)c1cc(Oc2ccc3nc(N[C@H](CO)Cc4ccccc4)ncc3c2)ccn1 [Example 13] |
| 98 | 43 | 13 | CNC(=O)c1cc(Oc2ccc3nc(NC(=O)c4ccccc4)ncc3c2)ccn1 [Example 72, 4-(2-benzamidoquinazolin-6-yloxy)-N-methylpicolinamide] |
| 90 | 1 | 9 | Nc1cc(Oc2ccc3nc(Nc4ccccc4N4CCOCC4)ncc3c2)ccn1 [Example 29, 6-(2-aminopyridin-4-yloxy)-N-(2-morpholinophenyl)quinazolin-2-amine] |
| 99 | 12 | 38 | CCOc1ccccc1Nc1ncc2cc(Oc3ccnc(C(=O)NC)c3)ccc2n1 [Example 45, 4-(2-(2-ethoxyphenylamino)quinazolin-6-yloxy)-N-methylpicolinamide] |
| 100 | 91 | 100 | Cn1cc(-c2cc(Oc3ccc4nc(NCC5CCCCC5)ncc4c3)ccn2)cn1 [Cmpd 21, N-(cyclohexylmethyl)-6-(2-(1-methyl-1H-pyrazol-4-yl)pyridin-4-yloxy)quinazolin-2-amine] |
| 100 | 3 | 30 | CNC(=O)c1cc(Oc2ccc3nc(N[C@@H]4c5ccccc5C[C@@H]4O)ncc3c2)ccn1 [Cmpd 19, 4-(2-((1R,2S)-2-hydroxy-2,3-dihydro-1H-inden-1-ylamino)quinazolin-6-yloxy)-N-methylpicolinamide] |
| 99 | 21 | 23 | CNC(=O)c1cc(Oc2ccc3nc(N[C@@H]4CCCC[C@H]4O)ncc3c2)ccn1 [Example 11] |
| 93 | 2 | 12 | CNC(=O)c1cc(Oc2ccc3nc(NC4CCN(C(=O)OC(C)(C)C)CC4)ncc3c2)ccn1 [Example 57, tert-butyl 4-(6-(2-(methylcarbamoyl)pyridin-4-yloxy)quinazolin-2-ylamino)piperidine-1-carboxylate] |
| 98 | 16 | 31 | CNC(=O)c1cc(Oc2ccc3nc(N[C@@H](CO)C4CCCCC4)ccc3c2)ccn1 [Example 7] |
| 80 | 2 | 14 | CCNC(=O)c1cc(Oc2ccc3nc(Nc4ccccc4N4CCOCC4)ncc3c2)ccn1 [Example 34, N-ethyl-4-(2-(2-morpholinophenylamino)quinazolin-6-yloxy)picolinamide] |
| 99 | < 1 | 16 | CNC(=O)c1cc(Oc2ccc3nc(NCC4(N5CCOCC5)CCCCC4)ncc3c2)ccn1 [Example 37, N-methyl-4-(2-((1-morpholinocyclohexyl)methylamino)quinazolin-6-yloxy)picolinamide] |
| 97 | 12 | 17 | CNC(=O)c1cc(Oc2ccc3nc(NC(=O)NC4CCCCC4)ncc3c2)ccn1 [Example 60, 4-(2-(3-cyclohexylureido)quinazolin-6-yloxy)-N-methylpicolinamide] |
| 100 | < 1 | 13 | CNC(=O)c1cc(Oc2ccc3nc(Nc4cccc5c4OCCO5)ncc3c2)ccn1 [Example 40, 4-(2-(2,3-dihydrobenzo[b][1,4]dioxin-5-ylamino)quinazolin-6-yloxy)-N-methylpicolinamide] |
| 65 | 20 | 47 | CNC(=O)c1cc(Oc2ccc3nc(Nc4ccccc4N4CCN(C)CC4)ncc3c2)ccn1 [Example 54, N-methyl-4-(2-(2-(4-methylpiperazin-1-yl)phenylamino)quinazolin-6-yloxy)picolinamide] |
| 93 | < 1 | 12 | CNC(=O)c1cc(Oc2ccc3nc(NCC(C)(C)N4CCOCC4)ncc3c2)ccn1 [Example 61, N-methyl-4-(2-(2-methyl-2-morpholinopropylamino)quinazolin-6-yloxy)picolinamide] |
| 99 | 15 | 19 | CC[C@H](C)[C@@H](CO)Nc1ncc2cc(Oc3ccnc(C(=O)NC)c3)ccc2n1 [Cmpd 14, 4-(2-((2S,3S)-1-hydroxy-3-methylpentan-2-ylamino)quinazolin-6-yloxy)-N-methylpicolinamide] |
| 98 | < 1 | 24 | CNC(=O)c1cc(Oc2ccc3nc(NCc4ccc5c(c4)OCCO5)ncc3c2)ccn1 [Example 43, 4-(2-((2,3-dihydrobenzo[b][1,4]dioxin-6-yl)methylamino)quinazolin-6-yloxy)-N-methylpicolinamide] |

Reference: patent publication US20100261679A1 (priority 2007, published 2010)
